Test results: the supplement of paper PMC10307832

What was measured:
Assay in all cases: relative viability (nuclei count vs DMSO), 5 days (fraction); higher = more cells survive
[1] = compound: CO[C@H]1C[C@@H]2CC[C@@H](C)[C@@](O)(O2)C(=O)C(=O)N2CCCC[C@H]2C(=O)O[C@H]([C@H](C)C[C@@H]2CC[C@@H](OCCO)[C@H](OC)C2)CC(=O)[C@H](C)/C=C(\C)[C@@H](O)[C@@H](OC)C(=O)[C@H](C)C[C@H](C)/C=C/C=C/C=C/1C [Everolimus] + CC(C)C[C@H](NC(=O)[C@H](Cc1ccccc1)NC(=O)c1cnccn1)B(O)O [Bortezomib] (partner 0.002 µM)
Outline: (§1)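 Relative viability is defined as nuclei in treated wells over nuclei in vehicle wells. Duplicate plates were run and medians reported. Lung cancer cell lines in 1536-well plates were dosed by pin tool one day after seeding, with one drug or with a fixed anchor-drug dose plus five library-drug doses (not always all listed) in √10 steps, and nuclei were counted after 5 days.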

[2] = compound: CO[C@H]1C[C@@H]2CC[C@@H](C)[C@@](O)(O2)C(=O)C(=O)N2CCCC[C@H]2C(=O)O[C@H]([C@H](C)C[C@@H]2CC[C@@H](OCCO)[C@H](OC)C2)CC(=O)[C@H](C)/C=C(\C)[C@@H](O)[C@@H](OC)C(=O)[C@H](C)C[C@H](C)/C=C/C=C/C=C/1C [Everolimus] + Cc1cc(Nc2cc(N3CCN(C)CC3)nc(Sc3ccc(NC(=O)C4CC4)cc3)n2)n[nH]1 [Tozasertib] (partner 0.1 µM)
Outline: as §1

[3] = compound: CO[C@H]1C[C@@H]2CC[C@@H](C)[C@@](O)(O2)C(=O)C(=O)N2CCCC[C@H]2C(=O)O[C@H]([C@H](C)C[C@@H]2CC[C@@H](OCCO)[C@H](OC)C2)CC(=O)[C@H](C)/C=C(\C)[C@@H](O)[C@@H](OC)C(=O)[C@H](C)C[C@H](C)/C=C/C=C/C=C/1C [Everolimus] + NC(=O)Nc1cc(-c2cccc(F)c2)sc1C(=O)N[C@H]1CCCNC1 [AZD7762] (partner 0.2 µM)
Outline: as §1

[4] = compound: CO[C@H]1C[C@@H]2CC[C@@H](C)[C@@](O)(O2)C(=O)C(=O)N2CCCC[C@H]2C(=O)O[C@H]([C@H](C)C[C@@H]2CC[C@@H](OCCO)[C@H](OC)C2)CC(=O)[C@H](C)/C=C(\C)[C@@H](O)[C@@H](OC)C(=O)[C@H](C)C[C@H](C)/C=C/C=C/C=C/1C [Everolimus] + Nc1ncn([C@H]2C[C@H](O)[C@@H](CO)O2)c(=O)n1 [Decitabine] (partner 2 µM)
Outline: as §1

## LCLC-97TM1
[1]; first compound 0.01 µM
  relative viability: 0.607
[1]; first compound 0.03162 µM
  relative viability: 0.489
[1]; first compound 0.1 µM
  relative viability: 0.525
[1]; first compound 0.3162 µM
  relative viability: 0.246
[1]; first compound 1 µM
  relative viability: 0.495
[2]; first compound 0.01 µM
  relative viability: 0.189
[2]; first compound 0.03162 µM
  relative viability: 0.216
[2]; first compound 0.1 µM
  relative viability: 0.181
[2]; first compound 0.3162 µM
  relative viability: 0.196
[2]; first compound 1 µM
  relative viability: 0.171
[3]; first compound 0.01 µM
  relative viability: 0.273
[3]; first compound 0.03162 µM
  relative viability: 0.145
[3]; first compound 0.1 µM
  relative viability: 0.189
[3]; first compound 0.3162 µM
  relative viability: 0.221
[3]; first compound 1 µM
  relative viability: 0.148
[4]; first compound 0.01 µM
  relative viability: 0.197
[4]; first compound 0.03162 µM
  relative viability: 0.205
[4]; first compound 0.1 µM
  relative viability: 0.184
[4]; first compound 0.3162 µM
  relative viability: 0.208
[4]; first compound 1 µM
  relative viability: 0.218

## HARA
[1]; first compound 0.01 µM
  relative viability: 1.07
[1]; first compound 0.03162 µM
  relative viability: 1.14
[1]; first compound 0.1 µM
  relative viability: 0.904
[1]; first compound 0.3162 µM
  relative viability: 1.11
[1]; first compound 1 µM
  relative viability: 1.01
[2]; first compound 0.01 µM
  relative viability: 0.226
[2]; first compound 0.03162 µM
  relative viability: 0.126
[2]; first compound 0.3162 µM
  relative viability: 0.116
[2]; first compound 1 µM
  relative viability: 0.293
[3]; first compound 0.01 µM
  relative viability: 0.15
[3]; first compound 0.03162 µM
  relative viability: 0.335
[3]; first compound 0.1 µM
  relative viability: 0.223
[3]; first compound 0.3162 µM
  relative viability: 0.309
[3]; first compound 1 µM
  relative viability: 0.252
[4]; first compound 0.01 µM
  relative viability: 0.451
[4]; first compound 0.03162 µM
  relative viability: 0.426
[4]; first compound 0.1 µM
  relative viability: 0.426
[4]; first compound 0.3162 µM
  relative viability: 0.572
[4]; first compound 1 µM
  relative viability: 0.474

## HCC-78
[1]; first compound 0.01 µM
  relative viability: 0.428
[1]; first compound 0.03162 µM
  relative viability: 0.375
[1]; first compound 0.1 µM
  relative viability: 0.384
[1]; first compound 0.3162 µM
  relative viability: 0.371
[1]; first compound 1 µM
  relative viability: 0.314
[2]; first compound 0.01 µM
  relative viability: 0.361
[2]; first compound 0.03162 µM
  relative viability: 0.428
[2]; first compound 0.1 µM
  relative viability: 0.406
[2]; first compound 0.3162 µM
  relative viability: 0.426
[2]; first compound 1 µM
  relative viability: 0.454
[3]; first compound 0.01 µM
  relative viability: 0.455
[3]; first compound 0.03162 µM
  relative viability: 0.427
[3]; first compound 0.1 µM
  relative viability: 0.361
[3]; first compound 0.3162 µM
  relative viability: 0.553
[3]; first compound 1 µM
  relative viability: 0.384
[4]; first compound 0.01 µM
  relative viability: 0.593
[4]; first compound 0.03162 µM
  relative viability: 0.605
[4]; first compound 0.1 µM
  relative viability: 0.636
[4]; first compound 0.3162 µM
  relative viability: 0.643
[4]; first compound 1 µM
  relative viability: 0.603

## NCI-H1666
[1]; first compound 0.01 µM
  relative viability: 0.644
[1]; first compound 0.03162 µM
  relative viability: 0.527
[1]; first compound 0.1 µM
  relative viability: 0.494
[1]; first compound 0.3162 µM
  relative viability: 0.56
[1]; first compound 1 µM
  relative viability: 0.533
[2]; first compound 0.01 µM
  relative viability: 0.571
[2]; first compound 0.03162 µM
  relative viability: 0.625
[2]; first compound 0.1 µM
  relative viability: 0.559
[2]; first compound 0.3162 µM
  relative viability: 0.668
[2]; first compound 1 µM
  relative viability: 0.527
[3]; first compound 0.01 µM
  relative viability: 0.855
[3]; first compound 0.03162 µM
  relative viability: 0.84
[3]; first compound 0.1 µM
  relative viability: 0.821
[3]; first compound 0.3162 µM
  relative viability: 0.899
[3]; first compound 1 µM
  relative viability: 0.908
[4]; first compound 0.01 µM
  relative viability: 0.676
[4]; first compound 0.03162 µM
  relative viability: 0.553
[4]; first compound 0.1 µM
  relative viability: 0.639
[4]; first compound 0.3162 µM
  relative viability: 0.75
[4]; first compound 1 µM
  relative viability: 0.672

## NCI-H2347
[1]; first compound 0.01 µM
  relative viability: 0.749
[1]; first compound 0.03162 µM
  relative viability: 0.658
[1]; first compound 0.1 µM
  relative viability: 0.752
[1]; first compound 0.3162 µM
  relative viability: 0.602
[1]; first compound 1 µM
  relative viability: 0.528
[2]; first compound 0.01 µM
  relative viability: 0.531
[2]; first compound 0.03162 µM
  relative viability: 0.519
[2]; first compound 0.1 µM
  relative viability: 0.365
[2]; first compound 0.3162 µM
  relative viability: 0.506
[2]; first compound 1 µM
  relative viability: 0.305
[3]; first compound 0.01 µM
  relative viability: 0.651
[3]; first compound 0.03162 µM
  relative viability: 0.618
[3]; first compound 0.1 µM
  relative viability: 0.576
[3]; first compound 0.3162 µM
  relative viability: 0.622
[3]; first compound 1 µM
  relative viability: 0.439
[4]; first compound 0.01 µM
  relative viability: 0.567
[4]; first compound 0.03162 µM
  relative viability: 0.509
[4]; first compound 0.1 µM
  relative viability: 0.553
[4]; first compound 0.3162 µM
  relative viability: 0.526
[4]; first compound 1 µM
  relative viability: 0.548

## NCI-H838
[1]; first compound 0.01 µM
  relative viability: 0.42
[1]; first compound 0.03162 µM
  relative viability: 0.48
[1]; first compound 0.1 µM
  relative viability: 0.377
[1]; first compound 0.3162 µM
  relative viability: 0.41
[1]; first compound 1 µM
  relative viability: 0.597
[2]; first compound 0.01 µM
  relative viability: 0.266
[2]; first compound 0.03162 µM
  relative viability: 0.258
[2]; first compound 0.1 µM
  relative viability: 0.27
[2]; first compound 0.3162 µM
  relative viability: 0.237
[2]; first compound 1 µM
  relative viability: 0.245
[3]; first compound 0.01 µM
  relative viability: 0.767
[3]; first compound 0.03162 µM
  relative viability: 0.777
[3]; first compound 0.1 µM
  relative viability: 0.75
[3]; first compound 0.3162 µM
  relative viability: 0.831
[3]; first compound 1 µM
  relative viability: 0.763
[4]; first compound 0.01 µM
  relative viability: 0.435
[4]; first compound 0.03162 µM
  relative viability: 0.444
[4]; first compound 0.1 µM
  relative viability: 0.356
[4]; first compound 0.3162 µM
  relative viability: 0.384
[4]; first compound 1 µM
  relative viability: 0.392

## NCI-H2023
[1]; first compound 0.01 µM
  relative viability: 0.667
[1]; first compound 0.03162 µM
  relative viability: 0.527
[1]; first compound 0.1 µM
  relative viability: 0.534
[1]; first compound 0.3162 µM
  relative viability: 0.615
[1]; first compound 1 µM
  relative viability: 0.335
[2]; first compound 0.01 µM
  relative viability: 0.273
[2]; first compound 0.03162 µM
  relative viability: 0.203
[2]; first compound 0.1 µM
  relative viability: 0.235
[2]; first compound 0.3162 µM
  relative viability: 0.235
[2]; first compound 1 µM
  relative viability: 0.225
[4]; first compound 0.01 µM
  relative viability: 0.204
[4]; first compound 0.03162 µM
  relative viability: 0.21
[4]; first compound 0.1 µM
  relative viability: 0.198
[4]; first compound 0.3162 µM
  relative viability: 0.199
[4]; first compound 1 µM
  relative viability: 0.168
